The values that follow are results of earlier work, collected in patent US20170007618A1, “SEROTONIN 2C RECEPTOR ANTAGONISTS TO PREVENT AND TREAT STRESS-RELATED TRAUMA DISORDERS” (Massachusetts Institute of Technology, priority 2015, published 2017).

What is called pKi is the Ki on a negative log10 scale, so that one unit is a factor of ten.

Where a name gives a salt, the structure may show the parent alone.

One data set concerns the target 5-HT2A receptors (Homo sapiens, UniProt P28223). The note with it: 5-HT2C versus 5-HT2A.
A further data set addresses 5-HT2B receptors (Homo sapiens, UniProt P41595). The note with it: 5-HT2C versus 5-HT2B.
Data set [1] concerns the target T1, cloned human 5-HT2C receptor (Homo sapiens, UniProt P28335).
T1 sequence (P28335 33-458): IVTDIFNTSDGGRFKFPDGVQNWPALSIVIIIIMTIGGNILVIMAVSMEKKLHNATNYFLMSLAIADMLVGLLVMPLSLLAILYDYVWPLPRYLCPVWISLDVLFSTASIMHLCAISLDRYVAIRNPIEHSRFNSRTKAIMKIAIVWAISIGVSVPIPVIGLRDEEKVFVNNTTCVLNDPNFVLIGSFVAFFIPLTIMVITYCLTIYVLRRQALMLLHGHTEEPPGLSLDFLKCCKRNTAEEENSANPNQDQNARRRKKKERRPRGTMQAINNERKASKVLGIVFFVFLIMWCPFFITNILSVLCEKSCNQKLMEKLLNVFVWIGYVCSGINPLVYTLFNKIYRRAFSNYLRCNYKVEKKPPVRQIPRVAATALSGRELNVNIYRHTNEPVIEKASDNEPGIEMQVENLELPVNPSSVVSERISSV

Chain of 5-HT2B receptors (P41595 whole entry): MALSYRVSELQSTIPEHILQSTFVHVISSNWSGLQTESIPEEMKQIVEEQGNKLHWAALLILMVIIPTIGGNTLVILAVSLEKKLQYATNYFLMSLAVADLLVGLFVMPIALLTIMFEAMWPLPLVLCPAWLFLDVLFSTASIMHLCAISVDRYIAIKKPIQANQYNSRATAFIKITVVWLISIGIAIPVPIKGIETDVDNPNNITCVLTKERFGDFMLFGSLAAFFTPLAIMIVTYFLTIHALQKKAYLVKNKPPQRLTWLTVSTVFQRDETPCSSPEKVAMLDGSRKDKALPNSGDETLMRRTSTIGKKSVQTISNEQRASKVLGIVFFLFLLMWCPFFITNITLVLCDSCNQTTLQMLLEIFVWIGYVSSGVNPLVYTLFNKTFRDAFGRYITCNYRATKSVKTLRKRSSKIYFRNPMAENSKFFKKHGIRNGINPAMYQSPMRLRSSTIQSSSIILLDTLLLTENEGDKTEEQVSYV
Chain of 5-HT2A receptors (P28223 whole entry): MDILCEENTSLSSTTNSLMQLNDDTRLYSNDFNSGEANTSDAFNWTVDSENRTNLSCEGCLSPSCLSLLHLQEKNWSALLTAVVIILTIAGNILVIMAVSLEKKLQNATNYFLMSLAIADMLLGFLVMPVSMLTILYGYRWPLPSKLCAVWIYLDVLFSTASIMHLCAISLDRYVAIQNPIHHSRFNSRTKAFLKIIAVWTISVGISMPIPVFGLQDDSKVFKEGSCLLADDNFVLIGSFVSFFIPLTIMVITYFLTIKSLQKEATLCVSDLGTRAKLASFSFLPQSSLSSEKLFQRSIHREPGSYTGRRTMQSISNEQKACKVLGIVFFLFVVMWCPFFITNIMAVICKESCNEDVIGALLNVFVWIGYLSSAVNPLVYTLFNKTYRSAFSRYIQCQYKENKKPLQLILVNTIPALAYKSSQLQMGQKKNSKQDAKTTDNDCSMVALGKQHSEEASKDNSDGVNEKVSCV

In the case of `COc1cc(OC)c(C(=O)CCCCN2CCC3(CC2)NC(=O)NC3=O)cc1NS(=O)(=O)c1ccc(C(F)(F)F)cc1` [RS 102221, 8-[5-(2,4-Dimethoxy-5-(4-trifluoromethylphenylsulphonamido)phenyl-5-oxopentyl]-1,3,8-triazaspiro[4.5]decane-2,4-dione hydrochloride], the “selectivity over 5-HT2A receptors” value on 5-HT2A receptors was 100 fold. Moreover, at 5-HT2B receptors, the “selectivity over 5-HT2B receptors” value was 100 fold.

With `Cl.Cn1ccc2cc(NC(=O)Nc3cccnc3)ccc21` [SB 200646A, N-(1-methyl-5-indolyl)-N′-(3-pyridyl) urea hydrochloride], the negative logarithm of the Ki (pKi) in data set [1] is recorded as 6.9.

In the case of `Cc1cc2c(cc1Cl)N(C(=O)Nc1ccc(Oc3cccnc3C)nc1)CC2` [SB 242084, 6-chloro-5-methyl-N-{6-[(2-methylpyridin-3-yl)oxy]pyridin-3-yl}indoline-1-carboxamide], the “selectivity over 5-HT2A receptors” value on 5-HT2A receptors is recorded as 158 fold. The “selectivity over 5-HT2B receptors” value at 5-HT2B receptors is reported as 100 fold.
